Test results from PMC6540241, “Targeting Tumor Markers with Antisense Peptides: An Example of Human Prostate Specific Antigen” (International Journal of Molecular Sciences, 2019).
Where a SMILES comes first, the peptide text is derived from it. Where no end group is shown, it is not given here. The star is where a group is joined. Biotin = O=C1N[C@H]2[C@H](CS[C@H]2CCCCC(=O)*)N1

B1: Human prostate specific antigen (hPSA) peptide 53–59: RHSLFHP (peptide)
peptide: RHSLFHP
notes: human prostate specific antigen (hPSA), residues 53-59 (R53-P59); 77-83 of the precursor P07288; In the magnetic particle enzyme immunoassay the peptide was coupled by EDC to SPHERO carboxyl magnetic particles; also called sense peptide; source: synthetic peptide, bought: GenScript (>97% purity)
B2: N-terminal biotin antisense peptide Biotin-AVRDKVG (peptide)
peptide: Biotin-AVRDKVG
modifications: not fully specified
notes: Some sentences print AKRDKVG; also called biotinylated antisense peptide AVRDKVG; antisense paratope Biotin-AVRDKVG; source: synthetic peptide, bought: GenScript (>97% purity)

How the values were obtained:
[1] = molecular target: T1, hPSA peptide RHSLFHP (residues 53–59) (Homo sapiens, UniProt P07288); assay: Microscale thermophoresis (MST); type: binding
T1 construct: Human prostate specific antigen (hPSA) peptide 53–59: RHSLFHP; purchased GenScript; host or cells: synthetic peptide
Procedure: The binding between the biotinylated antisense peptide AVRDKVG and a titrant, i.e., hPSA peptide RHSLFHP (Figure 3b), was observed by the method of microscale thermophoresis (MST). MST-analysis was performed using the Monolith.NT.115 instrument (NanoTemper Technologies GmbH, Munich, Germany). Biotin-AVRDKVG antisense directed to the hPSA region 53–59 was labeled with DY-495 (Red). The labeling procedure and the subsequent removal of unattached dye were performed within 45 min. A serial dilution of the non-labeled hPSA titrant was prepared in a 10 mM phosphate buffer. The concentration of biotin-hPSA antisense labelled with DY-495 was kept constant, while the concentration of the non-fluorescent binding partner (hPSA peptide RHSLFHP53–59) was varied between 0.0854 µM and 2.8 mM. After a short incubation, the samples were loaded into MST NT.115 standard glass capillaries and the MST-analysis was performed. The data were analyzed using GraphPad Prism software version 5.

[2] = molecular target: T2, hPSA peptide RHSLFHP coated onto carboxyl magnetic particles (Homo sapiens, UniProt P07288); assay: Magnetic particle enzyme immunoassay (MPEIA); type: binding
T2 construct: Human prostate specific antigen (hPSA) peptide 53–59: RHSLFHP; purchased GenScript; host or cells: synthetic peptide
Procedure: Briefly, the reaction mixture was composed of 2 mL sodium acetate buffer (0.01M, pH 5.0), 2 mg of peptide and 2 mL of 2.5% w/v carboxyl magnetic particles―1.14 μm, 20 mg of EDC. Reactions proceeded in glass reaction tubes overnight at room temperature in a rotary mixer. Tubes were centrifuged at 3000× g for 15 min, supernatant was carefully discarded, and the pellets were washed twice in 4 mL isotonic buffered saline (IBS), followed by centrifugation. After washing, coated magnetic particles were resuspended in 4 mL of PBS containing 0.05% Tween 20.
Two folds serial dilutions (1.09–70 µM) of biotinylated antisense peptide AVRDKVG were made in 96-well microtiter plates to generate standard curves (Figure 4b). Mismatched peptide Biotin-EHFRW was used as a negative control (Figure 4b). A suspension (1.25% w/v) of carboxyl magnetic particles, coated with sense peptide RHSLFHP, was added to each well (40 µL/well). The plates were incubated at room temperature for 30 min and washed with PBS-Tween 20 five times. The washing solution was removed each time using the Spherotech UltraMag Separator (Sperotech, Inc., Lake Forest, IL, USA).
A blocking solution (PBS with 1% BSA) was added to the wells and incubated at room temperature for one hour. […] The absorbances were read at 450 nm on a multiwell plate reader. The data were analyzed using GraphPad Prism software version 5.

[3] = test system: human prostate specific antigen (hPSA) in prostate cancer tissue; assay: Immunohistochemical staining of hPSA, protocol 2 (biotinylated peptide instead of primary antibody); parameters: key to overall quality of scoring (NordiQC) / hPSA staining quality score (NordiQC): 3: Staining reaction considered perfect or close to perfect.; 2: Staining reaction considered fully acceptable. The protocol may be optimized to ensure the best staining intensity and signal-to-noise ratio.; 1: Staining considered insufficient.; 0: Staining considered very insufficient
Procedure: (§1) Immunohistochemistry was performed on deparafinized slides (xylen and a series of ethanol solutions) at room temperature (20–25 °C). The phosphate-buffered saline (PBS) was used, with a pH of 7.2 and containing disodium hydrogen phosphate, sodium chloride, potassium chloride and potassium dihydrogen phosphate was used. PBS stock solution: 4 g KH2PO4, 23 g Na2HPO4, 4 g KCl, 160 g NaCl and 810 mL distilled water. Before staining, 100 mL of stock solution was diluted with 1900 mL of distilled water.
All slides (from seven patients) were selected from the repository of prostate cancer tissue, with diagnosis confirmed by consensus of two independent pathologists. The two pathologists who examined the slides stained with antisense peptides were unconnected with the pathologists who established the initial diagnosis.
(§2) Each of the two immunohistochemistry protocols for PSA staining consisted of six steps. Steps 1, 4, 5 and 6 of protocol 1 and protocol 2 were identical, while steps 2 and 3 differed (Figure 5 and Figure 6). For this study, the slides were kept in the dark at room temperature (20–25 °C), to prevent fading as a result of exposure to strong light. They were analyzed using an Olympus BX41 microscope, with an Olympus DP71 camera set to three levels of magnification: less than 40×, 100×, and 500×.
(§3) The staining protocol 2 was a modified IHC protocol 1, as follows: In step 2 we used antisense peptide Biotin-AVRDKVG, instead of the primary monoclonal mouse anti-human PSA antibody, in step 3 we used rabbit polyclonal antibody to biotin conjugated to HRP, instead of HRP labeled polymer conjugated to goat anti-mouse immunoglobulins (Figure 5), with peptide Biotin-EHFRW as a negative control (Figure 7). Otherwise, the procedures and chemicals were identical. Quality control for the PSA staining was investigated using NordiQC scoring criteria: 0—Poor; 1—Borderline; 2—Good; 3—Optimal. The scale is presented in Table A2, and the final results given in Table 4 are expressed as a sum of scores.
IHC staining―protocol 2: • The specimen was covered with peroxidase block, i.e., 100 μL of 0.03% hydrogen peroxide containing sodium azide (Dako, Glostrup, Denmark), and incubated for four minutes. Following this, the specimen was gently rinsed with phosphate buffered saline (PBS), and placed in a fresh buffer bath. • Biotinylated antisense peptide AVRDKVG (GenScript, Piscataway, NJ, USA) directed to PSA epitope 53–59 (RHSLFHP) was used to cover the specimen. Five milligrams of Biotin-AVRDKVG antisense was diluted in 2.5 mL PBS. Dilutions 1:10, 1:50, 1:100, 1:200 and 1:500 were applied to cover the specimen. A 100 μL volume was used per section. After 30 min of incubation, each specimen was gently rinsed with PBS and placed in a fresh buffer bath. • Anti-biotin antibody conjugated to HRP (ab34645, Abcam, Cambridge, UK) was applied to cover the specimen. Of the antibody 10 mg/2 mL was diluted 1:100. One hundred microliters of the diluted antibody was applied to cover each specimen, followed by a 30 min incubation. After the incubation, the specimen was gently rinsed with PBS and placed in a fresh buffer bath. • The specimen was covered with 100 μL of AEC + substrate-chromogen solution for 10 min, i.e., 3-amino-9-ethylcarbazole containing hydrogen peroxide, stabilizers, enhancers and an anti-microbial agent (Dako, Glostrup, Denmark). After that period the specimen was again rinsed with PBS. • The slides were immersed in a bath of aqueous hematoxylin (Mayerr’s hematoxylin), and rinsed gently in a distilled water bath. The slides were dipped 10 times into a bath of ammonia (0.037 mol/L), and then rinsed in a bath of distilled water for four minutes. • The specimens were mounted and coverslipped with non-aqueous permanent mounting medium Ultramount.

liver tissue = assay: Immunohistochemical staining of negative control tissue (protocol 2); parameters: species or system human
Procedure: as §1
as §2, with “For this study, the slides were kept in the dark at room temperature (20–25 °C), to prevent fading as a result of exposure to strong light.” left out
as §3, with “Otherwise, the procedures and chemicals were identical. Quality control for the PSA staining was investigated using NordiQC scoring criteria: 0—Poor; 1—Borderline; 2—Good; 3—Optimal.” left out, “scores. […]” for “scores.”

[4] = molecular target: B2; assay: MST; Biotin-AVRDKVG labelled with DY-495 kept constant; unlabelled RHSLFHP titrated 0.0854 µM to 2.8 mM in 10 mM phosphate buffer; Monolith NT.115, standard capillaries; conditions: both partners purified
[5] = molecular target: B1; assay: magnetic particle enzyme immunoassay (MPEIA); RHSLFHP coupled by EDC to SPHERO carboxyl magnetic particles; biotinylated peptide in two-fold dilutions 1.09–70 µM, room temperature, 30 min, PBS-Tween 20 washes; detected with streptavidin-peroxidase polymer and OPD, absorbance at 450 nm; conditions: both partners purified
[6] = mismatched peptide, negative control

With `CC(C)[C@H](NC(=O)[C@H](C)NC(=O)CCCC[C@@H]1SC[C@@H]2NC(=O)N[C@@H]21)C(=O)N[C@@H](CCCNC(=N)N)C(=O)N[C@@H](CC(=O)O)C(=O)N[C@@H](CCCCN)C(=O)N[C@H](C(=O)NCC(=O)O)C(C)C` [Biotin-AVRDKVG] (Biotin-AVRDKVG-OH) the Kd ([1]; Biotin-AVRDKVG labelled with DY-495, constant, RHSLFHP 0.0854 µM–2.8 mM, 10 mM phosphate buffer, r^2 = 0.989, mean ± SEM, read-out: dissociation constant (Kd)) was 24.3 ± 0.74 µM, the “effect of N-terminal biotinylation on binding” value ([1]; versus Kd of the non-biotinylated peptide by tryptophan fluorescence) was “does not significantly alter the binding to hPSA region 53–59 (RHSLFHP)” and the Kd ([2]; peptide 1.09–70 µM, 30 min, room temperature, streptavidin-peroxidase/OPD, 450 nm, r^2 = 0.996, mean ± SEM (SEM 0.20 µM), read-out: dissociation constant (Kd)) was 24.6 µM. For the same molecule, the “signal to noise ratio versus standard monoclonal antibody” value ([3]; compared with primary monoclonal mouse anti-human PSA antibody) was “comparable to the standard primary monoclonal mouse anti-human PSA antibody”, the “hPSA staining quality score (NordiQC)” value ([3]; dilution 1:10 (of 5 mg in 2.5 mL PBS), patient 1) was 0 and the “hPSA staining quality score (NordiQC)” value ([3]; dilution 1:10, patient 2) was 0. The “hPSA staining quality score (NordiQC)” value ([3]; dilution 1:10, patient 3) was 0, the “hPSA staining quality score (NordiQC)” value ([3]; dilution 1:10, patient 4) was 0 and the “hPSA staining quality score (NordiQC)” value ([3]; dilution 1:10, patient 5) was 0. The “hPSA staining quality score (NordiQC)” value ([3]; dilution 1:10, patient 6) was 0, the “hPSA staining quality score (NordiQC)” value ([3]; dilution 1:10, patient 7) was 0 and the “Sum of scores (NordiQC)” value ([3]; dilution 1:10, seven patients) was 0. The “hPSA staining quality score (NordiQC)” value ([3]; dilution 1:50, patient 1) was 1, the “hPSA staining quality score (NordiQC)” value ([3]; dilution 1:50, patient 2) was 1 and the “hPSA staining quality score (NordiQC)” value ([3]; dilution 1:50, patient 3) was 2. The “hPSA staining quality score (NordiQC)” value ([3]; dilution 1:50, patient 4) was 1, the “hPSA staining quality score (NordiQC)” value ([3]; dilution 1:50, patient 5) was 1 and the “hPSA staining quality score (NordiQC)” value ([3]; dilution 1:50, patient 6) was 1. The “hPSA staining quality score (NordiQC)” value ([3]; dilution 1:50, patient 7) was 1, the “Sum of scores (NordiQC)” value ([3]; dilution 1:50, seven patients) was 8 and the “staining of prostate cancer tissue” value ([3]; dilution 1:100) was “solid staining signal with minimal or absent background noise”. For the same molecule, the “hPSA staining quality score (NordiQC)” value ([3]; dilution 1:100, patient 1) was 2, the “hPSA staining quality score (NordiQC)” value ([3]; dilution 1:100, patient 2) was 2 and the “hPSA staining quality score (NordiQC)” value ([3]; dilution 1:100, patient 3) was 3. For the same molecule, the “hPSA staining quality score (NordiQC)” value ([3]; dilution 1:100, patient 4) was 2, the “hPSA staining quality score (NordiQC)” value ([3]; dilution 1:100, patient 5) was 3 and the “hPSA staining quality score (NordiQC)” value ([3]; dilution 1:100, patient 6) was 2. For the same molecule, the “hPSA staining quality score (NordiQC)” value ([3]; dilution 1:100, patient 7) was 2, the “Sum of scores (NordiQC)” value ([3]; dilution 1:100, seven patients) was 16 and the “hPSA staining quality score (NordiQC)” value ([3]; dilution 1:200, patient 1) was 0. For the same molecule, the “hPSA staining quality score (NordiQC)” value ([3]; dilution 1:200, patient 2) was 1, the “hPSA staining quality score (NordiQC)” value ([3]; dilution 1:200, patient 3) was 1 and the “hPSA staining quality score (NordiQC)” value ([3]; dilution 1:200, patient 4) was 1. For the same molecule, the “hPSA staining quality score (NordiQC)” value ([3]; dilution 1:200, patient 5) was 1, the “hPSA staining quality score (NordiQC)” value ([3]; dilution 1:200, patient 6) was 1 and the “hPSA staining quality score (NordiQC)” value ([3]; dilution 1:200, patient 7) was 1. For the same molecule, the “Sum of scores (NordiQC)” value ([3]; dilution 1:200, seven patients) was 6, the “hPSA staining quality score (NordiQC)” value ([3]; dilution 1:500, patient 1) was 0 and the “hPSA staining quality score (NordiQC)” value ([3]; dilution 1:500, patient 2) was 0. The “hPSA staining quality score (NordiQC)” value ([3]; dilution 1:500, patient 3) was 0, the “hPSA staining quality score (NordiQC)” value ([3]; dilution 1:500, patient 4) was 0 and the “hPSA staining quality score (NordiQC)” value ([3]; dilution 1:500, patient 5) was 0. For the same molecule, the “hPSA staining quality score (NordiQC)” value ([3]; dilution 1:500, patient 6) was 0, the “hPSA staining quality score (NordiQC)” value ([3]; dilution 1:500, patient 7) was 0 and the “Sum of scores (NordiQC)” value ([3]; dilution 1:500, seven patients) was 0. For the same molecule, the “staining of prostate cancer tissue” value ([3]; dilutions 1:10 and 1:50) was “increase in background noise”, the “staining of prostate cancer tissue” value ([3]; dilutions 1:200 and 1:500) was “loss of staining signal” and the “non-specific staining of prostate tissue” value ([3]; high concentration (1:10)) was “increase in background”. The “overall quality of scoring (NordiQC)” value ([3]; overall) was 2 and the “staining of negative control tissue” value (liver tissue) was “did not stain”.

For “Biotin-EHFRW: N-terminal biotin mismatched peptide, negative control [reference compound]”, the “binding to hPSA epitope RHSLFHP” value [2, 6] was “does not bind”.

“Biotin-EHFRW [N-terminal biotin mismatched peptide, negative control, reference compound]” was tested, and the “staining of hPSA of the prostate tissue” value [3, 6] was “did not stain”.

B1 gave a Kd [4] of 24.3 µM.

B2 gave a Kd [5] of 24.6 µM.
